From US20210269451A1, “PYRIDINYL HETEROCYCLYL COMPOUNDS FOR THE TREATMENT OF AUTOIMMUNE DISEASE” (Hoffmann-La Roche Inc., priority 2018, published 2021)
pIC50: −log10 of the molar value.

What was measured:
[1] = Human microsome stability assay; assay type: in vitro ADME; conditions: 1 μM test compound, 0.5 mg/mL liver microsomal protein, 37° C.
Protocol: Human microsome stability assay
The human microsomal stability assay is used for early assessment of metabolic stability of a test compound in human liver microsomes.
Human liver microsomes (Cat.NO.: 452117, Corning, USA;Cat.NO.:H2610, Xenotech, USA) were preincubated with test compound for 10 minutes at 37° C. in 100 mM potassium phosphate buffer, pH 7.4. The reactions were initiated by adding NADPH regenerating system. The final incubation mixtures contained 1 μM test compound, 0.5 mg/mL liver microsomal protein, 1 mM MgCl2, 1 mM NADP, 1 unit/mL isocitric dehydrogenase and 6 mM isocitric acid in 100 mM potassium phosphate buffer, pH 7.4. After incubation times of 0, 3, 6, 9, 15 and 30 minutes at 37° C., 300 μL of cold acetonitrile (including internal standard) was added to 100 μL incubation mixture to terminate the reaction. Following precipitation and centrifugation, the amount of compound remaining in the samples were determined by LC-MS/MS. Controls of no NADPH regenerating system at zero and 30 minutes were also prepared and analyzed.

human TLR8 = target: T1, human TLR8 (Homo sapiens, UniProt Q9NR97); assay: HEK293-Blue-hTLR-8 cells assay; assay type: cell-based; conditions: HEK293-Blue-hTLR8 cells, R848 stimulation, 20 hrs, SEAP reporter; read-out: HEK/hTLR8 IC50
T1 construct: host or cells: HEK293-Blue-hTLR-8 (HEK293)
T1 sequence (Q9NR97 27-1041): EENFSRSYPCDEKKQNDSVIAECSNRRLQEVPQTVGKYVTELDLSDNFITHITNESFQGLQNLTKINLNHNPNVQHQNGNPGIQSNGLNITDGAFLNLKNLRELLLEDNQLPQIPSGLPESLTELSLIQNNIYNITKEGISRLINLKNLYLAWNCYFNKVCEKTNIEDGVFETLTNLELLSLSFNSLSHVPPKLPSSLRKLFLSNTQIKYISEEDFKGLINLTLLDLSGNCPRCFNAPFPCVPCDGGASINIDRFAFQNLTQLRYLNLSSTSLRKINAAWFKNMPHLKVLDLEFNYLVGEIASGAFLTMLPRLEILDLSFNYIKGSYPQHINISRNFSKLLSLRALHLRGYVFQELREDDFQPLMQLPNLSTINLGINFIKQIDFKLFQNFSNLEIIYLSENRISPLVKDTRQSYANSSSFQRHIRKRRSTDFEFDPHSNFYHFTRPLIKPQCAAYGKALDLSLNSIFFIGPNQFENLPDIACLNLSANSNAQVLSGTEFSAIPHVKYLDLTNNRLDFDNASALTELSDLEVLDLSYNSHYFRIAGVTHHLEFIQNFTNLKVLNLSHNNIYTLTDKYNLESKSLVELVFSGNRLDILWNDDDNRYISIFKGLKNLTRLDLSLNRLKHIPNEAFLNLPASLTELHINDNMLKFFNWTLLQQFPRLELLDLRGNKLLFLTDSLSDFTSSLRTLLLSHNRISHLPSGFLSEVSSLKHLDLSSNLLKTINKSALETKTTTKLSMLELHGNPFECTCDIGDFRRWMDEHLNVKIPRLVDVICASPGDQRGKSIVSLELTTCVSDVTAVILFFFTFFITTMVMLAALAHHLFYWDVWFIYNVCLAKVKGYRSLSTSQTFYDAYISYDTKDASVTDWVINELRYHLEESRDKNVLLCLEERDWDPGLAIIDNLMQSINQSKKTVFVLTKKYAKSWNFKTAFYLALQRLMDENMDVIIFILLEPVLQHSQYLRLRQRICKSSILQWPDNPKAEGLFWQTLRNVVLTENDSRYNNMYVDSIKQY
Protocol: The following tests were carried out in order to determine the activity of the compounds of formula (I) and (Ia) in HEK293-Blue-hTLR-7/8/9 cells assay.
HEK293-Blue-hTLR-8 cells assay:
A stable HEK293-Blue-hTLR-8 cell line was purchased from InvivoGen (Cat. #: hkb-htlr8, San Diego, Calif., USA). These cells were originally designed for studying the stimulation of human TLR8 by monitoring the activation of NE-κB. A SEAP (secreted embryonic alkaline phosphatase) reporter gene was placed under the control of the IFN-β minimal promoter fused to five NE-κB and AP-1-binding sites. The SEAP was induced by activating NE-κB and AP-1 via stimulating HEK-Blue hTLR8 cells with TLR8 ligands. Therefore the reporter expression was declined by TLR8 antagonist under the stimulation of a ligand, such as R848, for incubation of 20 hrs. The cell culture supernatant SEAP reporter activity was determined using QUANTI-Blue™ kit (Cat. #: rep-qbl, Invivogen, San Diego, Ca, USA) at a wavelength of 640 nm, a detection medium that turns purple or blue in the presence of alkaline phosphatase.
HEK293-Blue-hTLR8 cells were incubated at a density of 250,000-450,000 cells/mL in a volume of 170 μL in a 96-well plate in Dulbecco's Modified Eagle's medium (DMEM) containing 4.5 g/L glucose, 50 U/mL penicillin, […], […], 2 mM L-glutamine, 10% (v/v) heat-inactivated fetal bovine serum with addition of 20 μL test compound in a serial dilution in the presence of final DMSO at 1% and 10 μL of 60 uM R848 in above DMEM, perform incubation under 37° C. in a CO2 incubator for 20 hrs. Then 20 μL of the supernatant from each well was incubated with 180 μL Quanti-blue substrate solution at 37° C. for 2 hrs and the absorbance was read at 620˜655 nm using a spectrophotometer. The signalling pathway that TLR8 activation leads to downstream NE-κB activation has been widely accepted, and therefore similar reporter assay was modified for evaluating TLR8 antagonist.

Row | SMILES | Clearance of Human microsome [1] [mL/min/kg] | pIC50 (human TLR8)
1 | Cc1cc(N2CC3(CN(C[C@H]4CN(c5ccc(C#N)c6ncccc56)C[C@@H](C)O4)C3)C2)cc(CO)n1 [Example 1, 5-[(2S,6R)-2-[[2-[2-(hydroxymethyl)-6-methyl-4-pyridyl]-2,6-diazaspiro[3.3]heptan-6-yl]methyl]-6-methyl-morpholin-4-yl]quinoline-8-carbonitrile] | 6.35 | 7.09
2 | Cc1cc(N2CCN(C[C@H]3CN(c4ccc(C#N)c5ncccc45)C[C@@H](C)O3)[C@@H](C)C2)cc(CO)n1 [Example 4A] | 6.15 | 8.15
3 | Cc1cc(NC2CCN(C[C@H]3CN(c4ccc(C#N)c5ncccc45)C[C@@H](C)O3)CC2)cc(CO)n1 [Example 5] | 7.47 | 7.48
4 | Cc1cc(NC2CCN(C[C@H]3CN(c4ccc(C#N)c5ncccc45)C[C@@H](C)O3)C2)cc(CO)n1 (stereo partly drawn) [Example 6] | 6.15 | 7.28
5 | Cc1cc(NC2CN(C[C@H]3CN(c4ccc(C#N)c5ncccc45)C[C@@H](C)O3)C2)cc(C)n1 [Example 7] | 6.15 | 7.51
6 | Cc1cc(N2CCC3(CN(C[C@H]4CN(c5ccc(C#N)c6ncccc56)C[C@@H](C)O4)C3)C2)cc(C)n1 [Example 9] | 6.15 | 7.29
7 | C[C@@H]1CN(c2ccc(C#N)c3ncccc23)C[C@H](CNC2CCN(c3ccnc(N)c3)CC2)O1 [Example 20, 5-[(2S,6R)-2-[[[1-(2-amino-4-pyridyl)-4-piperidyl]amino]methyl]-6-methyl-morpholin-4-yl]quinoline-8-carbonitrile] | 6.15 | 7.15
8 | Cc1cc(N2CC(N(C)C[C@H]3CN(c4ccc(C#N)c5ncccc45)C[C@@H](C)O3)C2)cc(CO)n1 [Example 37] | 6.15 | > 8.52
9 | Cc1cc(N2CCN(C[C@H]3CN(c4ccc(C#N)c5ncccc45)C[C@@H](C)O3)CC2)cc(N)n1 [Example 40, 5-[(2S,6R)-2-[[4-(2-amino-6-methyl-4-pyridyl)piperazin-1-yl]methyl]-6-methyl-morpholin-4-yl]quinoline-8-carbonitrile] | 6.15 | > 8.52
10 | CNc1cc(N2CCN(C[C@H]3CN(c4ccc(C#N)c5ncccc45)C[C@@H](C)O3)CC2)cc(C)n1 [Example 42, 5-[(2R,6S)-2-methyl-6-[[4-[2-methyl-6-(methylamino)-4-pyridyl]piperazin-1-yl]methyl]morpholin-4-yl]quinoline-8-carbonitrile] | – | > 8.52
11 | Cc1cc(C2CCN(C[C@H]3CN(c4ccc(C#N)c5ncccc45)C[C@@H](C)O3)CC2)cc(N)n1 [Example 43, 5-[(2S,6R)-2-[[4-(2-amino-6-methyl-4-pyridyl)-1-piperidyl]methyl]-6-methyl-morpholin-4-yl]quinoline-8-carbonitrile] | – | 7.74
12 | CC(O)c1cc(N2CC3(CN(C[C@H]4CN(c5ccc(C#N)c6ncccc56)C[C@@H](C)O4)C3)C2)ccn1 (stereo partly drawn) [Example 46, 5-[(2S,6R)-2-[[2-[2-(1-hydroxyethyl)-4-pyridyl]-2,6-diazaspiro[3.3]heptan-6-yl]methyl]-6-methyl-morpholin-4-yl]quinoline-8-carbonitrile] | 7.66 | 7.05
13 | C[C@@H]1CN(c2ccc(C#N)c3ncccc23)C[C@H](CN2CC3(C2)CN(c2ccnc(C(C)(C)O)c2)C3)O1 [Example 48, 5-[(2S,6R)-2[[2-[2-(1-hydroxy-1-methyl-ethyl)-4-pyridyl]-2,6-diazaspiro[3.3]heptan-6-yl]methyl]-6-methyl-morpholin-4-yl]quinoline-8-carbonitrile] | 6.87 | 6.70
14 | C[C@@H]1CN(c2ccc(C#N)c3ncccc23)C[C@H](CN2CC3(C2)CN(c2ccnc(CO)c2)CCO3)O1 [Example 51] | – | 8.52

The remaining molecules from weak to strong by pIC50 (human TLR8), led by results:

Row | Clearance of Human microsome [1] [mL/min/kg] | pIC50 (human TLR8) | SMILES
15 | 6.25 | 7.49 | Cc1cc(N2CC[C@@H](NC[C@H]3CN(c4ccc(C#N)c5ncccc45)C[C@@H](C)O3)C2)cc(CO)n1 [Example 28]
16 | 7.21 | 7.52 | Cc1cc(N2CC3(CN(C[C@H]4CN(c5ccc(C#N)c6ncccc56)C[C@@H](C)O4)C3)C2)cc(C(C)O)n1 (stereo partly drawn) [Example 44, 5-[(2S,6R)-2-[[2-[2-(1-hydroxyethyl)-6-methyl-4-pyridyl]-2,6-diazaspiro[3.3]heptan-6-yl]methyl]-6-methyl-morpholin-4-yl]quinoline-8-carbonitrile]
17 | 6.39 | 7.70 | C[C@@H]1CN(c2ccc(C#N)c3ncccc23)C[C@H](CN2CC3(C2)CN(c2ccnc(C4CC4)c2)C3)O1 [Example 49, 5-[(2S,6R)-2[[2-(2-cyclopropyl-4-pyridyl)-2,6-diazaspiro[3.3]heptan-6-yl]methyl]-6-methyl-morpholin-4-yl]quinoline-8-carbonitrile]
18 | 7.14 | 7.85 | Cc1cc(N2CC(NC[C@H]3CN(c4ccc(C#N)c5ncccc45)C[C@@H](C)O3)C2)cc(CO)n1 [Example 30]
19 | – | 7.85 | C[C@@H]1CN(c2ccc(C#N)c3ncccc23)C[C@H](CN2CCN(c3cc(N)nc(CO)c3)CC2)O1 [Example 45, 5-[(2S,6R)-2-[[4-[2-amino-6-(hydroxymethyl)-4-pyridyl]piperazin-1-yl]methyl]-6-methyl-morpholin-4-yl]quinoline-8-carbonitrile]
20 | 7.72 | 8.40 | Cc1cc(N2CCN(C[C@H]3CN(c4ccc(C#N)c5ncccc45)C[C@@H](C)O3)CC2)cc(CO)n1 [Example 50]
